Test results taken from patent publication US20060140857A1, “Method of the administration of drugs with binding affinity for plasma protein and preparation to be used in the method” (NIHON MEDI-PHYSICS CO., LTD., priority 1999, published 2006).

Legend:
[1] = Biodistribution of 123I-IMP in rat with verapamil loading; conditions: rats
Procedure: The rats were decapitated at 2, 5, 10, 30 and 60 minutes after administration. Then the blood was sampled and the organs of interest were excised. After measured the weight of these specimens, the radioactivities of the blood and organs were measured. After half-life of the radioactivities were corrected, the accumulation rate (% dose/g of the tissue) was obtained.

[2] = Free fraction of 123I-IMP in the blood of rats with verapamil loading; type: in vivo, rat
Procedure: Under the same conditions as mentioned above concerning the constitution of control and testing group, timings of decapitation, and dose of drugs, administrations of the drugs and decapitations of rats were conducted, and 3-5 ml of blood per one rat was sampled.

human plasma protein = experiment: Displacement of 123I-IMP binding to human plasma protein; conditions: human serum, control without second drug
[3] = loaded with verapamil about 10 mg/kg, 2 Minutes
[4] = loaded with verapamil about 10 mg/kg, 5 Minutes
[5] = loaded with verapamil about 10 mg/kg, 10 Minutes
[6] = loaded with verapamil about 10 mg/kg, 30 Minutes
[7] = loaded with verapamil about 10 mg/kg, 60 Minutes

CC(C)NC(C)Cc1ccc(I)cc1 (centres unmarked) [123I-IMP, N-isopropyl-p-iodoamphetamine]
Biodistribution of 123I-IMP, Blood ([1]; control group, 2 Minutes): 0.198 ± 0.052 % Dose/g Tissue
Biodistribution of 123I-IMP, Brain ([1]; control group, 2 Minutes): 1.800 ± 0.418 % Dose/g Tissue
Biodistribution of 123I-IMP, Heart ([1]; control group, 2 Minutes): 1.949 ± 0.293 % Dose/g Tissue
Biodistribution of 123I-IMP, Kidney ([1]; control group, 2 Minutes): 3.406 ± 0.905 % Dose/g Tissue
Biodistribution of 123I-IMP, Liver ([1]; control group, 2 Minutes): 0.506 ± 0.109 % Dose/g Tissue
Biodistribution of 123I-IMP, Lung ([1]; control group, 2 Minutes): 11.236 ± 0.780 % Dose/g Tissue
Biodistribution of 123I-IMP, Pancreas ([1]; control group, 2 Minutes): 1.503 ± 0.353 % Dose/g Tissue
Biodistribution of 123I-IMP, Spleen ([1]; control group, 2 Minutes): 0.880 ± 0.216 % Dose/g Tissue
Biodistribution of 123I-IMP, Stomach ([1]; control group, 2 Minutes): 0.302 ± 0.065 % Dose/g Tissue
Biodistribution of 123I-IMP, Blood ([1]; control group, 5 Minutes): 0.133 ± 0.005 % Dose/g Tissue
Biodistribution of 123I-IMP, Brain ([1]; control group, 5 Minutes): 1.476 ± 0.225 % Dose/g Tissue
Biodistribution of 123I-IMP, Heart ([1]; control group, 5 Minutes): 1.014 ± 0.070 % Dose/g Tissue
Biodistribution of 123I-IMP, Kidney ([1]; control group, 5 Minutes): 2.285 ± 0.256 % Dose/g Tissue
Biodistribution of 123I-IMP, Liver ([1]; control group, 5 Minutes): 0.699 ± 0.061 % Dose/g Tissue
Biodistribution of 123I-IMP, Lung ([1]; control group, 5 Minutes): 9.000 ± 0.600 % Dose/g Tissue
Biodistribution of 123I-IMP, Pancreas ([1]; control group, 5 Minutes): 1.923 ± 0.445 % Dose/g Tissue
Biodistribution of 123I-IMP, Spleen ([1]; control group, 5 Minutes): 0.999 ± 0.355 % Dose/g Tissue
Biodistribution of 123I-IMP, Stomach ([1]; control group, 5 Minutes): 0.500 ± 0.078 % Dose/g Tissue
Biodistribution of 123I-IMP, Blood ([1]; control group, 10 Minutes): 0.116 ± 0.011 % Dose/g Tissue
Biodistribution of 123I-IMP, Brain ([1]; control group, 10 Minutes): 1.006 ± 0.379 % Dose/g Tissue
Biodistribution of 123I-IMP, Heart ([1]; control group, 10 Minutes): 0.631 ± 0.111 % Dose/g Tissue
Biodistribution of 123I-IMP, Kidney ([1]; control group, 10 Minutes): 1.303 ± 0.190 % Dose/g Tissue
Biodistribution of 123I-IMP, Liver ([1]; control group, 10 Minutes): 0.711 ± 0.143 % Dose/g Tissue
Biodistribution of 123I-IMP, Lung ([1]; control group, 10 Minutes): 6.279 ± 1.026 % Dose/g Tissue
Biodistribution of 123I-IMP, Pancreas ([1]; control group, 10 Minutes): 1.721 ± 0.217 % Dose/g Tissue
Biodistribution of 123I-IMP, Spleen ([1]; control group, 10 Minutes): 1.008 ± 0.074 % Dose/g Tissue
Biodistribution of 123I-IMP, Stomach ([1]; control group, 10 Minutes): 0.407 ± 0.230 % Dose/g Tissue
Biodistribution of 123I-IMP, Blood ([1]; control group, 30 Minutes): 0.136 ± 0.028 % Dose/g Tissue
Biodistribution of 123I-IMP, Brain ([1]; control group, 30 Minutes): 1.346 ± 0.345 % Dose/g Tissue
Biodistribution of 123I-IMP, Heart ([1]; control group, 30 Minutes): 0.524 ± 0.037 % Dose/g Tissue
Biodistribution of 123I-IMP, Kidney ([1]; control group, 30 Minutes): 1.359 ± 0.222 % Dose/g Tissue
Biodistribution of 123I-IMP, Liver ([1]; control group, 30 Minutes): 1.192 ± 0.536 % Dose/g Tissue
Biodistribution of 123I-IMP, Lung ([1]; control group, 30 Minutes): 5.209 ± 1.446 % Dose/g Tissue
Biodistribution of 123I-IMP, Pancreas ([1]; control group, 30 Minutes): 2.032 ± 0.505 % Dose/g Tissue
Biodistribution of 123I-IMP, Spleen ([1]; control group, 30 Minutes): 1.356 ± 0.277 % Dose/g Tissue
Biodistribution of 123I-IMP, Stomach ([1]; control group, 30 Minutes): 0.885 ± 0.366 % Dose/g Tissue
Biodistribution of 123I-IMP, Blood ([1]; control group, 60 Minutes): 0.181 ± 0.006 % Dose/g Tissue
Biodistribution of 123I-IMP, Brain ([1]; control group, 60 Minutes): 1.511 ± 0.011 % Dose/g Tissue
Biodistribution of 123I-IMP, Heart ([1]; control group, 60 Minutes): 0.540 ± 0.026 % Dose/g Tissue
Biodistribution of 123I-IMP, Kidney ([1]; control group, 60 Minutes): 1.585 ± 0.132 % Dose/g Tissue
Biodistribution of 123I-IMP, Liver ([1]; control group, 60 Minutes): 1.442 ± 0.164 % Dose/g Tissue
Biodistribution of 123I-IMP, Lung ([1]; control group, 60 Minutes): 5.186 ± 0.616 % Dose/g Tissue
Biodistribution of 123I-IMP, Pancreas ([1]; control group, 60 Minutes): 1.957 ± 0.345 % Dose/g Tissue
Biodistribution of 123I-IMP, Spleen ([1]; control group, 60 Minutes): 1.290 ± 0.138 % Dose/g Tissue
Biodistribution of 123I-IMP, Stomach ([1]; control group, 60 Minutes): 1.245 ± 0.343 % Dose/g Tissue
Biodistribution of 123I-IMP, Blood [1, 3]: 0.238 ± 0.083 % Dose/g Tissue
Biodistribution of 123I-IMP, Brain [1, 3]: 1.584 ± 0.425 % Dose/g Tissue
Biodistribution of 123I-IMP, Heart [1, 3]: 3.769 ± 0.911 % Dose/g Tissue
Biodistribution of 123I-IMP, Kidney [1, 3]: 1.424 ± 0.313 % Dose/g Tissue
Biodistribution of 123I-IMP, Liver [1, 3]: 0.287 ± 0.156 % Dose/g Tissue
Biodistribution of 123I-IMP, Lung [1, 3]: 9.234 ± 1.748 % Dose/g Tissue
Biodistribution of 123I-IMP, Pancreas [1, 3]: 1.268 ± 0.375 % Dose/g Tissue
Biodistribution of 123I-IMP, Spleen [1, 3]: 0.052 ± 0.025 % Dose/g Tissue
Biodistribution of 123I-IMP, Stomach [1, 3]: 0.234 ± 0.111 % Dose/g Tissue
Biodistribution of 123I-IMP, Blood [1, 4]: 0.228 ± 0.012 % Dose/g Tissue
Biodistribution of 123I-IMP, Brain [1, 4]: 1.916 ± 0.131 % Dose/g Tissue
Biodistribution of 123I-IMP, Heart [1, 4]: 2.260 ± 0.680 % Dose/g Tissue
Biodistribution of 123I-IMP, Kidney [1, 4]: 1.278 ± 0.381 % Dose/g Tissue
Biodistribution of 123I-IMP, Liver [1, 4]: 0.350 ± 0.130 % Dose/g Tissue
Biodistribution of 123I-IMP, Lung [1, 4]: 8.377 ± 0.563 % Dose/g Tissue
Biodistribution of 123I-IMP, Pancreas [1, 4]: 1.659 ± 0.496 % Dose/g Tissue
Biodistribution of 123I-IMP, Spleen [1, 4]: 0.063 ± 0.250 % Dose/g Tissue
Biodistribution of 123I-IMP, Stomach [1, 4]: 0.164 ± 0.078 % Dose/g Tissue
Biodistribution of 123I-IMP, Blood [1, 5]: 0.139 ± 0.003 % Dose/g Tissue
Biodistribution of 123I-IMP, Brain [1, 5]: 2.145 ± 0.410 % Dose/g Tissue
Biodistribution of 123I-IMP, Heart [1, 5]: 1.247 ± 0.209 % Dose/g Tissue
Biodistribution of 123I-IMP, Kidney [1, 5]: 1.766 ± 0.678 % Dose/g Tissue
Biodistribution of 123I-IMP, Liver [1, 5]: 0.688 ± 0.237 % Dose/g Tissue
Biodistribution of 123I-IMP, Lung [1, 5]: 6.947 ± 1.486 % Dose/g Tissue
Biodistribution of 123I-IMP, Pancreas [1, 5]: 1.911 ± 0.685 % Dose/g Tissue
Biodistribution of 123I-IMP, Spleen [1, 5]: 0.213 ± 0.118 % Dose/g Tissue
Biodistribution of 123I-IMP, Stomach [1, 5]: 0.377 ± 0.013 % Dose/g Tissue
Biodistribution of 123I-IMP, Blood [1, 6]: 0.098 ± 0.044 % Dose/g Tissue
Biodistribution of 123I-IMP, Brain [1, 6]: 1.529 ± 0.811 % Dose/g Tissue
Biodistribution of 123I-IMP, Heart [1, 6]: 0.471 ± 0.209 % Dose/g Tissue
Biodistribution of 123I-IMP, Kidney [1, 6]: 1.231 ± 0.632 % Dose/g Tissue
Biodistribution of 123I-IMP, Liver [1, 6]: 1.185 ± 0.751 % Dose/g Tissue
Biodistribution of 123I-IMP, Lung [1, 6]: 3.890 ± 2.223 % Dose/g Tissue
Biodistribution of 123I-IMP, Pancreas [1, 6]: 1.877 ± 0.886 % Dose/g Tissue
Biodistribution of 123I-IMP, Spleen [1, 6]: 0.886 ± 0.319 % Dose/g Tissue
Biodistribution of 123I-IMP, Stomach [1, 6]: 0.782 ± 0.621 % Dose/g Tissue
Biodistribution of 123I-IMP, Blood [1, 7]: 0.110 ± 0.002 % Dose/g Tissue
Biodistribution of 123I-IMP, Brain [1, 7]: 1.449 ± 0.281 % Dose/g Tissue
Biodistribution of 123I-IMP, Heart [1, 7]: 0.456 ± 0.039 % Dose/g Tissue
Biodistribution of 123I-IMP, Kidney [1, 7]: 1.242 ± 0.146 % Dose/g Tissue
Biodistribution of 123I-IMP, Liver [1, 7]: 1.639 ± 0.051 % Dose/g Tissue
Biodistribution of 123I-IMP, Lung [1, 7]: 4.133 ± 0.079 % Dose/g Tissue
Biodistribution of 123I-IMP, Pancreas [1, 7]: 1.478 ± 0.161 % Dose/g Tissue
Biodistribution of 123I-IMP, Spleen [1, 7]: 1.193 ± 0.129 % Dose/g Tissue
Biodistribution of 123I-IMP, Stomach [1, 7]: 1.058 ± 0.126 % Dose/g Tissue
Free fraction (%) of 123I-IMP in the blood of rats ([2]; control group, 2 Minutes): 56.75 ± 9.21%
Free fraction (%) of 123I-IMP in the blood of rats ([2]; control group, 5 Minutes): 50.70 ± 10.37%
Free fraction (%) of 123I-IMP in the blood of rats ([2]; control group, 10 Minutes): 45.91 ± 3.12%
Free fraction (%) of 123I-IMP in the blood of rats ([2]; control group, 30 Minutes): 27.29 ± 4.85%
Free fraction (%) of 123I-IMP in the blood of rats ([2]; control group, 60 Minutes): 16.77 ± 4.11%
Free fraction (%) of 123I-IMP in the blood of rats ([2]; test group with verapamil loading, 2 Minutes): 52.40 ± 6.00%
Free fraction (%) of 123I-IMP in the blood of rats ([2]; test group with verapamil loading, 5 Minutes): 56.52 ± 4.38%
Free fraction (%) of 123I-IMP in the blood of rats ([2]; test group with verapamil loading, 10 Minutes): 66.86 ± 6.34%
Free fraction (%) of 123I-IMP in the blood of rats ([2]; test group with verapamil loading, 30 Minutes): 38.03 ± 6.69%
Free fraction (%) of 123I-IMP in the blood of rats ([2]; test group with verapamil loading, 60 Minutes): 31.86 ± 8.23%
free of fraction of 123I-IMP (%) (human plasma protein): 29.29%
